In patent publication US9260382B2, “Methods of reducing virulence in bacteria” (priority 2010, dated 2016):

Key:
[1] = test system: hrpA promoter (T3SS); experiment: GFP reporter plasmid phrpA, flow cytometry (FACS) of hrpA promoter activity; assay type: cell-based, Dickeya dadantii 3937; conditions: for mean fluorescence intensity of GFP, hrpA expression: D. dadantii 3937 (phrpA), MM + 100 μM compound; for minimal effective concentration: Dickeya dadantii, read-out: minimal inhibitory concentration on hrpA expression (concentration showing inhibitory effect); for inhibitory activity on T3SS gene (hrpA) expression, in words: D. dadantii 3937, reporter plasmid phrpA, 100 μM
Description: FACS analysis of promoter activity of dspE, hrpA, hrpL, hrpN, and hrpS was carried out as described (Peng et al., 2006). Briefly, the wild-type Ech3937 and the mutant strains carrying the promoter reporter plasmid were grown on LB broth at 28° C. overnight and transferred to appropriate media. For FACS analysis, samples were collected by centrifugation, washed with 1× phosphate buffer saline (PBS) at 13,000 rpm for 1 min, and re-suspended in 1×PBS to ca 10^6 CFU/ml prior to being run in a FACS Calibur flow cytometer (BD Biosciences, CA). Three replicates were performed for each treatment.
To identify potential compounds that repress activation of T3SS, analogs and isomers of TCA and intermediates of salicylic acid and phenypropanoid biosynthesis pathways in plants were further screened for their effect on Ech3937 hrpA expression by flow cytometry (Table 9). A green fluorescent protein (GFP) reporter plasmid phrpA (pProbe-AT derivative with PCR fragment containing hrpA promoter region) was constructed, resulting in a transcriptional fusion of hrpA promoter with GFP gene. Bacterial cells containing phrpA plasmid were grown in MM supplemented with 0.1 mM of each compound. GFP intensity, which is a measurement of hrpA promoter activity, was measured by flow cytometry.
hrpA encodes the T3SS pilus required for protein translocation into plant cells. To test for an inhibitory effect on T3SS hrpA expression, the reporter plasmid phrpA was used to measure the effects of these compounds on hrpA expression. The reporter plasmid phrpA encodes a transcriptional fusion of the hrpA promoter controlling expression of green fluorescent protein (gfp). 50 μL of bacterial suspension of D. dadantii 3937 carrying the hrpA reporter (optical density at 600 nm OD600=1.0) was used as the initial inoculum and added to 5 mL of MM or MM supplemented with 100 μM of one of the compounds. The expression level of hrpA of these bacterial cells was measured by measuring GFP intensity of gated populations of the bacterial cells by flow cytometry and analyzed with Cell Quest software (BD Biosciences, San Jose, Calif.). The fluorescence intensities were an average GFP fluorescence intensity of total bacterial cells. Compounds were assayed two different times (12 and 24 h of bacterial growth) with T3SS minimal media (MM) as the control treatment for each set of experiment. Values presented in Table 14 are mean fluorescence intensity of GFP, representative of two experiments, presented as the average of three replicates with standard deviation (SD).

[2] = test system: hrpA promoter (T3SS); experiment: hrpA promoter-probe phrpA in Erwinia amylovora 273, flow cytometry; assay type: cell-based; conditions: Ea273 (phrpA), HIM + 100 μM compound
Description: Wild-type Erwinia amylovora 273 was used in this study. The promoter-probe plasmid phrpA was constructed as follows. The hrpA promoter region of Erwinia amylovora 273 was amplified and cloned into pPROBE-NT to produce PhrpA. Plasmid PhrpA was electroporated into Erwinia amylovora 273. Expression of hrpA was analyzed using a FACS Calibur flow cytometer (BD Biosciences, CA). Wild-type Erwinia amylovora 273 containing phrpA was cultured in a hrp-inducing medium (HIM) containing dimethyl sulfoxide (DMSO; solvent of chemical compounds), or HIM supplemented with 100 μM of each compound, and promoter activity was assessed at 6 h and 9 h by measuring GFP intensity using flow cytometry (Table 19).

| Compound | mean fluorescence intensity of GFP, hrpA expression ([1]; 12 h) | mean fluorescence intensity of GFP, hrpA expression ([1]; 24 h) | Avg MFI ± SD, hrpA expression ([2]; 6 h) | Avg MFI ± SD, hrpA expression ([2]; 9 h) | minimal effective concentration [1] | inhibitory activity on T3SS gene (hrpA) expression, in words [1] |
| --- | --- | --- | --- | --- | --- | --- |
| CCOC(=O)[C@@H]1C[C@H]1c1ccc(OC)cc1 (relative stereo) [Compound 100, Ethyl trans-2-(4-methoxyphenyl)-1-cyclopropanecarboxylate] | 45.3 ± 3.4 | 119.1 ± 22.1 | 447.8 ± 20.2 | 594.6 ± 3.5 |  |  |
| COc1ccc([C@@H]2C[C@H]2C(=O)O)cc1 (relative stereo) [Compound 105, trans-2-(4-Methoxyphenyl)-1-cyclopropanecarboxylic acid] | 22.9 ± 2.6 | 82.4 ± 5.8 | 345.3 ± 11.9 | 200.2 ± 11.0 | 100 µM |  |
| O=C(O)[C@@H]1C[C@H]1c1ccc(O)cc1 (relative stereo) [Compound 107, trans-2-(4-Hydroxyphenyl)-1-cyclopropanecarboxylic acid] | 45.9 ± 2.7 | 122.1 ± 17.9 | 1464.3 ± 76.5 | 1348.0 ± 82.6 |  | no inhibitory activity |
| NC(=O)/C=C/c1ccc(O)cc1 [Compound 102, trans-4-Hydroxycinnamaide] | 21.1 ± 1.2 | 60.8 ± 10.6 | 1134.0 ± 36.7 | 766.4 ± 94.8 | 100 µM | did not show any inhibitory activity |
| O=C(O)/C=C/c1ccc(-c2ccccc2)cc1 [Compound 108, trans-4-Phenylcinnamic acid] | 31.6 ± 2.5 | 109.0 ± 19.8 |  |  |  | inactive |
| NC(=O)/C=C/c1ccc(Cl)cc1 [Compound 109, trans-4-Chlorocinnamide] | 35.7 ± 6.3 | 81.5 ± 3.8 | 172.9 ± 20.5 | 90.6 ± 12.0 |  |  |
| O=C(O)/C=C/c1ccc(F)cc1 [Compound 110, trans-4-Fluorocinnamic acid] | 63.4 ± 8.0 | 183.8 ± 19.2 | 279.2 ± 5.3 | 152.4 ± 0.7 |  | inactive |
| O=C(/C=C/c1ccc(CO)cc1)NO [Compound 147, trans-4-Hydroxymethylcinnamohydroxamic acid] |  |  | 688.6 ± 39.2 | 746.8 ± 96.3 |  |  |
| O=C(/C=C/c1ccc(Cl)cc1)NO [Compound 148, trans-4-Chlorocinnamohydroxamic acid] |  |  | 22.5 ± 3.7 | 21.8 ± 25.2 |  |  |
| O=C(/C=C/c1ccccc1Cl)NO [Compound 150, trans-2-Chlorocinnamohydroxamic acid] |  |  | 25.9 ± 3.2 | 30.5 ± 3.3 |  |  |
| O=C(/C=C/c1cccc(Br)c1)NO [Compound 151, trans-3-Bromocinnamohydroxamic acid] |  |  | 6.3 ± 1.2 | 3.9 ± 1.2 |  |  |
| O=C(/C=C/c1ccccc1Br)NO [Compound 152, trans-2-Bromocinnamohydroxamic acid] |  |  | 15.7 ± 2.3 | 11.1 ± 1.2 |  |  |
| O=C(/C=C/c1cccc(F)c1)NO [Compound 153, trans-3-Fluorocinnamohydroxamic acid] |  |  | 177.1 ± 11.9 | 110.6 ± 3.2 |  |  |
| O=C(/C=C/c1ccccc1F)NO [Compound 154, trans-2-Fluorocinnamohydroxamic acid] |  |  | 111.4 ± 15.1 | 77.8 ± 1.3 |  |  |
| O=C(/C=C/c1ccc([N+](=O)[O-])cc1)NO [Compound 155, trans-4-Nitrocinnamohydroxamic acid] |  |  | 108.4 ± 8.5 | 132.5 ± 2.6 |  |  |
| O=C(/C=C/c1cccc([N+](=O)[O-])c1)NO [Compound 156, trans-3-Nitrocinnamohydroxamic acid] |  |  | 67.8 ± 17.9 | 99.5 ± 4.9 |  |  |
| O=C(/C=C/c1ccccc1[N+](=O)[O-])NO [Compound 157, trans-2-Nitrocinnamohydroxamic acid] |  |  | 104.6 ± 7.3 | 96.2 ± 3.3 |  |  |
| COc1cccc(/C=C/C(=O)NO)c1 [Compound 158, trans-3-Methoxycinnamohydroxamic acid] |  |  | 216.2 ± 12.5 | 250.6 ± 13.9 |  |  |
| COc1ccccc1/C=C/C(=O)NO [Compound 159, trans-2-Methoxycinnamohydroxamic acid] |  |  | 256.3 ± 10.8 | 337.3 ± 15.2 |  |  |
| Cc1ccccc1/C=C/C(=O)NO [Compound 160, trans-2-Methylcinnamohydroxamic acid] |  |  | 122.7 ± 1.9 | 95.7 ± 3.7 |  |  |
| O=C(/C=C/c1cccs1)NO [Compound 161, trans-3-(2-Thienyl)acrylhydroxamic acid] |  |  | 132.4 ± 13.2 | 145.0 ± 11.7 |  |  |
| O=C(/C=C/c1ccco1)NO [Compound 163, trans-3-(2-Furyl)acrylhydroxamic acid] |  |  | 231.5 ± 7.0 | 196.5 ± 14.9 |  |  |
| O=C(O)/C=C/c1ccc(C(=O)Cc2ccccc2)cc1 [Compound 164, trans-4-(Benzylcarbonyl)cinnamic acid] |  |  | 155.7 ± 22.2 | 116.4 ± 6.7 |  |  |
| O=C(Cc1ccccc1)c1ccc(C2CC2C(=O)O)cc1 (stereo not drawn) [Compound 165, trans-2-[(4′-Benzylcarbonyl]phenylcyclopropane-1-carboxylic acid] |  |  | 292.8 ± 17.1 | 229.4 ± 15.0 |  |  |
| O=C(O)/C=C/c1ccc(C(=O)Nc2ccccc2)cc1 [Compound 166, trans-4-(Carbo-phenylamide)cinnamic acid] |  |  | 105.0 ± 53.0 | 221.2 ± 22.2 |  |  |
| CN(C(=O)c1ccc(/C=C/C(=O)O)cc1)c1ccccc1 [Compound 167, trans-4-(Carbo-N-methyl-phenylamide)cinnamic acid] |  |  | 729.7 ± 67.5 | 707.3 ± 55.9 |  |  |
| Benzoic acid [Compound 034] |  |  | 48.1 ± 5.4 | 32.6 ± 1.9 |  |  |
